Reference: patent publication US6458766B1, “Halovir, an antiviral marine natural product, and derivatives thereof” (The Regents of the University of California, priority 1998, dated 2002)
Read-outs that look alike come from different tables or passages of the source. Non-standard residues stand in square brackets, D forms with d. Residues, ends and D or L forms follow the SMILES beside them. *: point of attachment. Myristoyl = CCCCCCCCCCCCCC(=O)*; Hyp = O=C(O)[CH]1C[CH](O)CN1; Leu(ol) = CC(C)C[CH](N)CO; X1 = CC(=O)OCC(CC(C)C)N*; Aib = CC(C)(N)C(=O)O

Legend:
HSV-1 [1] = assay: MTT assay for antiviral activity against HSV-1 in Vero cells; assay type: cell-based, Herpes simplex virus; settings: for antiviral activity against HSV-1: pure compounds from C18 HPLC of active fractions; for cells subjected to infection protected: test concentration 2.5 μg/mL, Vero cells, 50 pfu virus, five days incubation
Experimental: Antiviral activity of the halovirs was determined in vitro against the. HSV-I by an MTT assay (Hitoshi Takeuchi, An application of tetrazolium (MTT) calorimetric assay for screening of anti-herpes simplex virus compounds, Journal of Virological Methods, 33 (1991) 61-71), modified as follows. Vero cells were plated at a concentration of 10,000 cells/well in 100 μL of minimum essential medium (MEM) containing 5% fetal bovine serum (FBS) in 96-well plates. The cells were incubated overnight at 37° C. and 5% CO2. The media was removed by aspiration, and 100 μL of phosphate buffered saline (PBS) was added to each well and then aspirated. The wells were treated with 100 μL of MEM containing 50 plaque forming units (pfu) of virus and incubated for one hour. Each well was then overlayed with 100 μL of media containing 2% FBS and serial dilutions of an appropriate halovir solution. The halovir solution was previously prepared by dissolving the halovir in DMSO. After incubation for five days, each well was treated with 20 μL of a solution of 10 mg/mL of MTT in PBS. […] The media was carefully aspirated, and 100 μL of acidified isopropanol was added to dissolve any formazan produced. Acidified isopropanol solution is prepared by adding 50 mL Triton X100 and 2 mL concentrated HCL to 450 mL isopropanol. The optical density of the wells at 550 nm was determined using an ELISA plate reader. The amount of formazan present is directly proportional to the number of surviving cells in a given well. The amount of formazan were spectrophotometrically measured in wells with no antiviral agent and virus to establish a quantitative standard for 100% cell survival. Similarly wells with only virus were measured and used to establish a quantitative standard for 0% cell survival. At a test concentration of 2.5 μg/mL, Halovirs A, B, C, and D protected 50%, 40%, 33%, and 55%, respectively, of the cells subjected to infection.

HSV-1 [2] = assay type: cell-based, Herpes simplex virus
Experimental: Four experimental solutions were prepared.
Solution 1: Viral Inactivation
HSV-1 was diluted to 50,000 pfu/ml in 1.35 mL MEM with 0% Fetal Bovine Serum (0% MEM). This was treated with 8.2 μL of a solution of Halovir A dissolved in DMSO at a concentration of 25 mg/mL.
Solution 2: DMSO Inactivation Control
Solution 2 was prepared in an identical manner as solution 1, except that pure DMSO was added to the viral suspension.
This experiment provides a baseline for 100% cell survival. Solution 3 was prepared with 1.35 mL 0% MEM with 8.2 μL DMSO.
Solution 4: Normal Assay Conditions
Virus was diluted in 1.36 mL 0% MEM to a final concentration of 50,000 pfu/mL. No DMSO or Halovir A was added.
All solutions were vortexed for 30 seconds and then shaken at ambient temperature for 2.5 hours. They were then vortexed for 30 seconds, and 100 μL of each was diluted with 9.9 mL of 0% MEM (100×dilution). The diluted solutions are herein referred to as solutions 1-4.
96-well microtiter plates were prepared with Vero cells overnight, washed with PBS, and aspirated as previously described. 100 μL of Solution 1 was added to each well of a microtiter plate containing cells. This was repeated for Solutions 2-4. The plates were incubated at 37° C. and 5% CO2. After one hour, experiment plates prepared with Solutions 1-3 were overlaid with 100 μL of 2% MEM. […]

Row | SMILES | antiviral activity against HSV-1 (HSV-1 [1]) | cells subjected to infection protected (HSV-1 [1]) | mean optical density at 550 nm (OD) (HSV-1 [2]; Solution 1: HSV-1 treated with Halovir A for 2.5 hours, 100x dilution, then added to Vero cells, mean of 80 wells) | mean optical density at 550 nm (OD) (HSV-1 [2]; Solution 4: normal assay conditions, untreated virus, overlay with 2% MEM containing 1.5 μg/mL Halovir A after one hour)
1 | CCCCCCCCCCCCCC(=O)NC(C)(C)C(=O)N1CC(O)CC1C(=O)NC(CC(C)C)C(=O)NC(C(=O)NC(CCC(N)=O)C(=O)NC(CO)CC(C)C)C(C)C (stereo not drawn) [Halovir A, CH3(CH2)12C(O)-Aib-Hyp-Leu-Val-Gln-Leu(OH)] (Myristoyl-[Aib][Hyp]LVQ[Leu(ol)]; configuration not given here) | potent antiviral activity | 50% | 1.18 | 0.32
2 | CCCCCCCCCCCCCC(=O)NC(C)(C)C(=O)N1CC(O)CC1C(=O)NC(CC(C)C)C(=O)NC(C)C(=O)NC(CCC(N)=O)C(=O)NC(CO)CC(C)C (stereo not drawn) [Halovir B, CH3(CH2)12C(O)-Aib-Hyp-Leu-Ala-Gln-Leu(OH)] (Myristoyl-[Aib][Hyp]LAQ[Leu(ol)]; configuration not given here) | potent antiviral activity | 40% | – | –
3 | CCCCCCCCCCCCCC(=O)NC(C)(C)C(=O)N1CC(OC(C)=O)CC1C(=O)NC(CC(C)C)C(=O)NC(C(=O)NC(CCC(N)=O)C(=O)NC(COC(C)=O)CC(C)C)C(C)C (stereo not drawn) [Halovir D, CH3(CH2)12C(O)-Aib-Hyp(OAc)-Leu-Val-Gln-Leu(OAc)] (Myristoyl-[Aib][Hyp](Ac)LVQ-X1; configuration not given here) | – | 55% | – | –
4 | CCCCCCCCCCCCCC(=O)NC(C)(C)C(=O)N1CCCC1C(=O)NC(CC(C)C)C(=O)NC(C(=O)NC(CCC(N)=O)C(=O)NC(CO)CC(C)C)C(C)C (stereo not drawn) [Halovir C, CH3(CH2)12C(O)-Aib-Pro-Leu-Val-Gln-Leu(OH)] (Myristoyl-[Aib]PLVQ[Leu(ol)]; configuration not given here) | potent antiviral activity | 33% | – | –
